Results published in ChEMBL document CHEMBL1151843, “Chromones from the endophytic fungus Pestalotiopsis sp. isolated from the chinese mangrove plant Rhizophora mucronata” (J Nat Prod, 2009).
≈ marks a conversion by molar mass, not a printed value.

test system: L5178Y; test: Cytotoxicity against mouse L5178Y cells after 72 hrs by MTT assay; type: functional, cell-based; details: Mus musculus, L5178Y, 72 h; read-out: EC50; call rule not given here

Structure (SMILES)	EC50
CCCCCc1cc(=O)c2c(CC(=O)OC)cc(O)cc2o1 [PESTALOTIOPSONE F]	8.93 µg/mL (≈ 29.3 µM)

same assay, conditions: l5178y

Structure (SMILES)	EC50
CCOC(=O)Cc1cc(O)cc2oc(CCCCCC(C)O)cc(=O)c12 (configuration not stated) [PESTALOTIOPSONE E]	Not Active
CCCCCCCc1cc(=O)c2c(CC(=O)O)cc(O)cc2o1 [PESTALOTIOPSONE C]	Not Active
CCCCCCCc1cc(=O)c2c(CC(=O)OCC)cc(O)cc2o1 [PESTALOTIOPSONE B]	Not Active
Cc1cc(O)cc2oc(C[C@H](C)O)cc(=O)c12	Not Active
COC(=O)Cc1cc(O)cc2oc(CCCCCC(C)O)cc(=O)c12 (configuration not stated) [PESTALOTIOPSONE D]	Not Active
CCCCCCCc1cc(=O)c2c(CC(=O)OC)cc(O)cc2o1 [PESTALOTIOPSONE A]	Not Active
